# Where two headings read alike, the source gives them in different places.
# Columns and labels:
# Francisella tularensis = test: microbe, parasite or virus in culture; assay type: cell-based; conditions: read-out: Francisella tularensis NR-577 MIC, strain NR-577
# N. gonorrhoeae = test: microbe, parasite or virus in culture; assay type: cell-based; conditions: Neisseria gonorrhoeae, read-out: Neisseria gonorrhoeae WHO 914 MIC, strain WHO 914
# HepG2 cells = test: Cytotoxicity MTT assay in HepG2 cells; assay type: cell-based; conditions: Homo sapiens
# Description: Additionally, the antimicrobial compounds were analyzed for cytotoxicity. […] We utilized the standard MTT assay (Promega CellTiter 96) and GraphPad Prism 7 software to determine EC50 values for each analogue. Briefly, 20,000 HepG2 cells in 200 μl of the ATCC recommended media were seeded in each well of a 96-well plate with a moisture barrier created in the outermost wells. The cells were allowed to attach overnight at 37° C., and then observed under phase contrast microscopy for proper morphological characteristics. […] Once incubations were complete, the spectrophotometric absorbance of the samples was measured at a wavelength of 595 nm. […] For the HepaRG assay, NoSpin HepaRG™ cells (Lonza, cat #NSHPRG) were thawed and plated with 20,000 cells per well. They were allowed to attach for 4 h (optimal DME profile per Lonza's testing) before dosing following the identical protocol as above.
# Staphylococcus aureus = test: microbe, parasite or virus in culture
# S. aureus = test: SYTOX green cell permeability assay on S. aureus; assay type: cell-based, Staphylococcus aureus; conditions: concentrations relative to the MIC, FIG. 1A
SMILES,EC50 (HepG2 cells) [µg/mL],other results
"Fc1ccc2[nH]cc(Cc3ccc(Br)cc3)c2c1 [Compound 174EB, 3-(4-bromobenzyl)-5-fluoro-1H-indole]",–,MIC (Francisella tularensis): 2 µg/mL; MIC (N. gonorrhoeae): 8 µg/mL
"Clc1ccc(Sc2c[nH]c3ccc(Br)cc23)cc1 [Compound 174J, 5-bromo-3-((4-chlorophenyl)thio)-1H-indole]",25.3,–
"Brc1cccc(Sc2c[nH]c3ccc(Br)cc23)c1 [Compound 174N, 5-bromo-3-((3-bromophenyl)thio)-1H-indole]",29.5,"MIC (Staphylococcus aureus; MRSA, read-out: Staphylococcus aureus MIC, MRSA strain HM-467): 3.13 µg/mL; MIC (Staphylococcus aureus; MRSA, read-out: Staphylococcus aureus MIC, MRSA strain NK-41886): 3.13 µg/mL; MIC (Staphylococcus aureus; MRSA, read-out: Staphylococcus aureus MIC, MRSA strain NR-13533): 3.13 µg/mL; MIC (Staphylococcus aureus; MRSA, read-out: Staphylococcus aureus MIC, MRSA strain NR-28983): 3.13 µg/mL; MIC (Staphylococcus aureus; MRSA, read-out: Staphylococcus aureus MIC, MRSA strain NR-41875): 3.13 µg/mL; MIC (Staphylococcus aureus; MRSA, read-out: Staphylococcus aureus MIC, MRSA strain NR-41876): 3.13 µg/mL; MIC (Staphylococcus aureus; MRSA, read-out: Staphylococcus aureus MIC, MRSA strain NR-41877): 3.13 µg/mL; MIC (Staphylococcus aureus; MRSA, read-out: Staphylococcus aureus MIC, MRSA strain NR-41878): 3.13 µg/mL; MIC (Staphylococcus aureus; read-out: Staphylococcus aureus MIC, VSSA NR-49121): 1.56 µg/mL"
"Fc1ccc(Sc2c[nH]c3ccc(Br)cc23)cc1 [Compound 174P, 5-bromo-3-((4-fluorophenyl)thio)-1H-indole]",38.3,–
"Clc1ccc(Sc2c[nH]c3ccc(Br)cc23)c(Cl)c1 [Compound 174V, 5-bromo-3-((2,4-dichlorophenyl)thio)-1H-indole]",24.8,–
"Nc1cc(Br)ccc1Sc1c[nH]c2ccc(Br)cc12 [Compound 174X, 5-bromo-2-((5-bromo-1H-indol-3-yl)thio)aniline]",30.2,–
"Oc1ccccc1Sc1c[nH]c2ccc(C(F)(F)F)cc12 [Compound 177A, 2-((5-(trifluoromethyl)-1H-indol-3-yl)thio)phenol]",24.1,–
"Oc1ccc(Sc2c[nH]c3ccc(C(F)(F)F)cc23)cc1 [Compound 177B, 4-((5-(trifluoromethyl)-1H-indol-3-yl)thio)phenol]",27.7,–
"Nc1ccccc1Sc1c[nH]c2ccc(C(F)(F)F)cc12 [Compound 177C, 2-((5-(trifluoromethyl)-1H-indol-3-yl)thio)aniline]",48.2,–
"Fc1ccccc1Sc1c[nH]c2ccc(C(F)(F)F)cc12 [Compound 177D, 3-((2-fluorophenyl)thio)-5-(trifluoromethyl)-1H-indole]",27.1,–
"Fc1ccc2[nH]cc(Sc3ccccc3Br)c2c1 [Compound 177E, 3-((2-bromophenyl)thio)-5-fluoro-1H-indole]",31.6,–
"FC(F)(F)c1ccc2[nH]cc(Sc3ccccc3C(F)(F)F)c2c1 [Compound 177F, 5-(trifluoromethyl)-3-((2-(trifluoromethyl)phenyl)thio)-1H-indole]",29.8,–
"CCc1ccccc1Sc1c[nH]c2ccc(C(F)(F)F)cc12 [Compound 177G, 3-((2-ethylphenyl)thio)-5-(trifluoromethyl)-1H-indole]",29.5,–
"OCc1[nH]c2ccc(Br)cc2c1Sc1ccccc1Br [Compound 177H, (5-bromo-3-((2-bromophenyl)thio)-1H-indol-2-yl)methanol]",31.8,–
"CCc1ccccc1Sc1c(CO)[nH]c2ccc(C(F)(F)F)cc12 [Compound 177I, (3-((2-ethylphenyl)thio)-5-(trifluoromethyl)-1H-indol-2-yl)methanol]",31.3,–
"c1ccc(Oc2c[nH]c3ccccc23)cc1 [Compound 925C, 3-phenoxy-1H-indole]",–,MIC (Francisella tularensis): 8 µg/mL
"CC[C@H](C)[C@H](NC(=O)CN)C(=O)NCC(=O)N[C@@H](C)C(=O)N[C@H](C(=O)N[C@@H](CC(C)C)C(=O)N[C@@H](CCCCN)C(=O)N[C@H](C(=O)N[C@@H](CC(C)C)C(=O)N[C@H](C(=O)N[C@H](C(=O)NCC(=O)N[C@@H](CC(C)C)C(=O)N1CCC[C@H]1C(=O)N[C@@H](C)C(=O)N[C@@H](CC(C)C)C(=O)N[C@H](C(=O)N[C@@H](CO)C(=O)N[C@@H](Cc1c[nH]c2ccccc12)C(=O)N[C@H](C(=O)N[C@@H](CCCCN)C(=O)N[C@@H](CCCNC(=N)N)C(=O)N[C@@H](CCCCN)C(=O)N[C@@H](CCCNC(=N)N)C(=O)N[C@@H](CCC(N)=O)C(=O)N[C@@H](CCC(N)=O)C(N)=O)[C@@H](C)CC)[C@@H](C)CC)[C@@H](C)O)[C@@H](C)O)C(C)C)C(C)C [melittin, reference compound]",–,cell permeability by SYTOX green fluorescence (S. aureus): permeabilizes cells

# Reference: patent US20250382268A1, “METHODS AND COMPOSITIONS FOR SELECTIVELY INHIBITING PATHOGENIC MICROBES” (priority 2019, published 2025)
